From PMC7827406, “Structure–Activity Relationship (SAR) Study of Spautin-1 to Entail the Discovery of Novel NEK4 Inhibitors” (International Journal of Molecular Sciences, 2021) come the findings set out here.

Common to all, as to experiment: biochemical
What all share (design): Eurofins KinaseProfiler full panel at Km ATP, residual kinase activity (%) relative to DMSO

The target in one assay is T1, EphB1(h) (Homo sapiens, UniProt P54762).
T1 sequence (P54762 1-984): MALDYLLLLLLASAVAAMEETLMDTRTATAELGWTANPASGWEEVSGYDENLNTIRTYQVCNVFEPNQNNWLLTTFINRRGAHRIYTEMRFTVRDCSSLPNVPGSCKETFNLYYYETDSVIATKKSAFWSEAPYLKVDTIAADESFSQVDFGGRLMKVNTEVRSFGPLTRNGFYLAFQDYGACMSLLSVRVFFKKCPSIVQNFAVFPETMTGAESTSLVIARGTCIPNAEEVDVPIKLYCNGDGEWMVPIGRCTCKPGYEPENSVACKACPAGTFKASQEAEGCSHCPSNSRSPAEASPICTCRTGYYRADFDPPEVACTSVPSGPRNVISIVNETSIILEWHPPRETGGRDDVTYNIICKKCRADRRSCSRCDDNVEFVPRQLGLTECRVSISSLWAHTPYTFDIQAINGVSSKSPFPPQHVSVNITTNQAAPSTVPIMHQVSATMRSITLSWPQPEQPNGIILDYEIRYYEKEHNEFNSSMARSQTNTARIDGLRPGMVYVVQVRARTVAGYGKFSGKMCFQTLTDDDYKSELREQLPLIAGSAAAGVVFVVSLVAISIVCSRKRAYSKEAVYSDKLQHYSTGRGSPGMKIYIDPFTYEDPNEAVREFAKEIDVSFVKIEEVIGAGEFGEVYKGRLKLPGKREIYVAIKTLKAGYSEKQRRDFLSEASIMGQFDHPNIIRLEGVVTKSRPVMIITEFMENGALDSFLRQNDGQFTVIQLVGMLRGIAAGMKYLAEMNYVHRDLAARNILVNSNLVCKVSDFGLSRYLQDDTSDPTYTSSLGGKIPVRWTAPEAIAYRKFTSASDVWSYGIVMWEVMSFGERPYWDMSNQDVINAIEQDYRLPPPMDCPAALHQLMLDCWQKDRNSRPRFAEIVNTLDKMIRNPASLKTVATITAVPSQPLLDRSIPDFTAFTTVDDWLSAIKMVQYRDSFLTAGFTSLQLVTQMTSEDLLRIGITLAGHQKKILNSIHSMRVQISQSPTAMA
In short, it runs like this: (§1)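 Two 10 µM single-concentration screens were run: a competition-binding screen, in which DNA-tagged kinase bound to immobilized ligands was quantified by qPCR, and a radiometric activity panel at Km ATP. Each is expressed as residual kinase activity (%).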

For a further assay, the target named is T2, CHK1(h) (Homo sapiens, UniProt O14757).
T2 construct: gene CHEK1
T2 sequence (O14757 1-476): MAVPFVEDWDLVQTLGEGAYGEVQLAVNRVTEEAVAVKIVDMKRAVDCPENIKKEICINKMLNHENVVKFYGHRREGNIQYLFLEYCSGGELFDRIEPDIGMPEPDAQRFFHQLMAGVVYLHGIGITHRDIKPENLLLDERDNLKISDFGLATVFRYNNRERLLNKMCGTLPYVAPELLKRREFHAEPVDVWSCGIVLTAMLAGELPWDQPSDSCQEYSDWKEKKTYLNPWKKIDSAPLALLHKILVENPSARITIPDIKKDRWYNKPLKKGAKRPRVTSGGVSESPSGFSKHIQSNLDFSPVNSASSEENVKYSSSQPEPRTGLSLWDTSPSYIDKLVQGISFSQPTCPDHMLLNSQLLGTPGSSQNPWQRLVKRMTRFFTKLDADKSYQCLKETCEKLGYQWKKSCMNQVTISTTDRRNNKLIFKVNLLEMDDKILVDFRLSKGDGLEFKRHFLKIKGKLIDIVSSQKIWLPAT
In short, it runs like this: as §1

For a further assay, the target named is T3, PRP4(h) (Homo sapiens, UniProt Q13523).
T3 construct: gene PRP4K
In short, it runs like this: as §1

Another assay addresses T4, TSSK2(h) (Homo sapiens, UniProt Q96PF2).
T4 sequence (Q96PF2 1-358): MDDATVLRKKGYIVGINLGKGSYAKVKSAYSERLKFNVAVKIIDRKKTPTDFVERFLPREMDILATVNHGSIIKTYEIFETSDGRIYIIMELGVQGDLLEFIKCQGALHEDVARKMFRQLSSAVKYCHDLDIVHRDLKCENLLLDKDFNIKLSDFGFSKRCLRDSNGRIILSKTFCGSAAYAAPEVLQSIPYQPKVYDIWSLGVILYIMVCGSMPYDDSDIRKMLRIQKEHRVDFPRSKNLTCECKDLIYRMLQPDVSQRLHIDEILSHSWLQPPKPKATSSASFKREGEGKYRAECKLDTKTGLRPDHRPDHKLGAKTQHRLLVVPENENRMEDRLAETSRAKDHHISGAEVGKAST
In short, it runs like this: as §1

Setting [1] is: read-out: Residual activity (%) Spautin-1 5aa.
Where [2] appears, read: read-out: Residual activity (%) 5as.
Setting [3] is: read-out: Residual activity (%) 5at.
[4] abbreviates: read-out: Residual activity (%) 5ay.

Read-outs that look alike come from different tables or passages of the source.

T3 sequence (Q13523 whole entry): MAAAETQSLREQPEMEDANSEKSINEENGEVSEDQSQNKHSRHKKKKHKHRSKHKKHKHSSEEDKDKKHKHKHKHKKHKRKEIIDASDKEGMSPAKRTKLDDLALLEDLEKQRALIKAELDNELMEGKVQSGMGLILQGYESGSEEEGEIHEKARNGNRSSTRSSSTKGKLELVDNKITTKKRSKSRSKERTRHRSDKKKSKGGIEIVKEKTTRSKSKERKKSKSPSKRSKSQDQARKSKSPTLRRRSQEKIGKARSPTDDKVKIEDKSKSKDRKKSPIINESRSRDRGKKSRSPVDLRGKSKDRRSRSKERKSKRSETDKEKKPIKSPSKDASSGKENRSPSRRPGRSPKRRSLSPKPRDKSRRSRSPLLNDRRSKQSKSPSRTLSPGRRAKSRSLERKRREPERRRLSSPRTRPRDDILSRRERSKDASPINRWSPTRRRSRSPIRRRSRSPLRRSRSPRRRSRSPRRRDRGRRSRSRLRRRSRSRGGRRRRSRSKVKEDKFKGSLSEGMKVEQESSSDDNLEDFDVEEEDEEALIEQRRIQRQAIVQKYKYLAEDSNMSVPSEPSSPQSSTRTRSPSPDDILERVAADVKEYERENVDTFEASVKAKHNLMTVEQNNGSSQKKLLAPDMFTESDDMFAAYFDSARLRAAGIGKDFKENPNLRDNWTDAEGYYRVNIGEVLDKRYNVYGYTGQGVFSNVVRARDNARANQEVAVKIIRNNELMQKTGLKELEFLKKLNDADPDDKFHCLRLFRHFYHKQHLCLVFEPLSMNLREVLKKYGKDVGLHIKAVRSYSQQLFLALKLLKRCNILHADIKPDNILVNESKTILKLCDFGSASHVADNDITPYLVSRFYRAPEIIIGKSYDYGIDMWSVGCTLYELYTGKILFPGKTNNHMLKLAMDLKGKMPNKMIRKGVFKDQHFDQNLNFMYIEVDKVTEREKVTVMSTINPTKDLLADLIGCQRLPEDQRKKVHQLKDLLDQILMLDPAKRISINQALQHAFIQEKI

With `Fc1ccc(CNc2ncnc3ccc(F)cc23)cc1` [5aa, 6-Fluoro-N-(4-fluorobenzyl)-4-Quinazolinamine], the remaining activity at 10 µM on EphB1(h) (setting [1]) came to 84%; at CHK1(h) (setting [1]), 80%; on PRP4(h) (setting [1]), 104%; at TSSK2(h) (setting [1]), 101%.
Consider `Fc1ccc(CCNc2ncnc3ccc(F)cc23)cc1` [5as, 6-Fluoro-N-[2-(4-Fluorophenyl)Ethyl]-4-Quinazolinamine], for which the remaining activity at 10 µM on EphB1(h) (setting [2]) worked out at 90%; on CHK1(h) (setting [2]), 69%; on PRP4(h) (setting [2]), 105%; on TSSK2(h) (setting [2]), 97%.
As for `Fc1ccc2ncnc(NCCc3ccc(Cl)cc3)c2c1` [5at, N-[2-(4-Chlorophenyl)Ethyl]-6-Fluoro-4-Quinazolinamine], the remaining activity at 10 µM is 95% on EphB1(h) (setting [3]), 73% at CHK1(h) (setting [3]), 99% at PRP4(h) (setting [3]) and 103% at TSSK2(h) (setting [3]).
`COc1ccc2ncnc(Nc3cccc(F)c3)c2c1` [5ay, N-(3-Fluorophenyl)-6-Methoxy-4-Quinazolinamine]: the remaining activity at 10 µM was found to be 88% on EphB1(h) (setting [4]), 76% at CHK1(h) (setting [4]), 100% at PRP4(h) (setting [4]) and 103% on TSSK2(h) (setting [4]).
